# From US12068729B2, “Anti-factor XII/XIIa antibodies and uses thereof” (Regeneron Pharmaceuticals, Inc., priority 2018, dated 2024)
# How the values were obtained:
# [1] = tested on: Extrinsic and Common pathways of the coagulation cascade; test: Prothrombin Time (PT) in pooled normal human plasma; format: biochemical
# Excerpt: (§1) This Example describes the inhibitory activity of selected antibodies, as determined by four functional plasma assays: 1) Activated Partial Thromboplastin Time (aPTT), 2) Prothrombin Time (PT), 3) Thrombin Generation Assay (TGA) triggered by ellagic acid and 4) TGA triggered by Tissue Factor. The aPTT test evaluates all clotting factors of the Intrinsic and Common pathways of the coagulation cascade by measuring time for a clot to form after the addition of calcium and ellagic acid, whereas the PT test evaluates all clotting factors of the Extrinsic and Common pathways of the coagulation cascade after the addition of calcium and Tissue Factor. The TGA triggered by ellagic acid measures the rate and amount of thrombin generated via the Intrinsic and Common pathways whereas TGA triggered by Tissue Factor measures the rate and amount of thrombin generated via the Extrinsic and Common pathways.
# (§2) The PT was determined on Diagnostica Stago STart4 Hemostasis Analyzer in the following manner. A total of 50 ul of pooled normal human plasma was added to a cuvette at 37° C. […] The measured clot time for the test article concentration was normalized to baseline (no drug) plasma clot time and plotted against log molar concentration of the test article. The results were analyzed using nonlinear regression (4-parameter logistics) with Prism 5 software (GraphPad) to obtain doubling time concentration.
# [2] = tested on: Intrinsic and Common pathways of the coagulation cascade; test: Activated Partial Thromboplastin Time (aPTT) in pooled normal human plasma; format: biochemical
# Excerpt: as §1, with “The TGA triggered by ellagic acid measures the rate and amount of thrombin generated via the Intrinsic and Common pathways whereas TGA triggered by Tissue Factor measures the rate and amount of thrombin generated via the Extrinsic and Common pathways.” left out
# as §2, with “aPTT” for “PT”, “manner:” for “manner.”
# [3] = tested on: thrombin generated via the Extrinsic and Common pathways; test: Thrombin Generation Assay (TGA) triggered by Tissue Factor; format: biochemical, human
# Excerpt: as §1
# The thrombin generation profile was determined in a Thermo Scientific Hemker Thrombinoscope in the following manner: A total of 55 ul of pooled normal human plasma was added to a well of a microplate at 37° C. Then 5 ul of a 2× serially diluted test article (antibody or small molecule inhibitor) in PBS was added to the well of the microplate and allowed to incubate for 30 min. 15 ul of Tissue Factor PPP Reagent (Diagnostica Stago) was added to the well and allowed to incubate for 45 min. Then 15 ul of Fluo Flu Cal substrate (Diagnostica Stago) was added immediately before a continuous 90 min reading of the microplate. The measured real-time thrombin concentration values were plotted against time to yield a thrombogram profile for each concentration of the test article used.
# [4] = tested on: thrombin generated via the Intrinsic and Common pathways; test: Thrombin Generation Assay (TGA) triggered by ellagic acid; format: biochemical, human; details: for Concentration required for ↑ lag time by 2× / Concentration required for ↓ endogenous thrombin potential by ½ / Concentration required for ↓ thrombin peak by ½: Intrinsic Pathway Activation with Ellagic Acid
# Excerpt: as §1
# The thrombin generation profile was determined in a Thermo Scientific Hemker Thrombinoscope in the following manner: A total of 55 ul of pooled normal human plasma was added to a well of a microplate at 37° C. Then 5 ul of a 2× serially diluted test article (antibody or small molecule inhibitor) in PBS was added to the well of the microplate and allowed to incubate for 30 min. 15 ul of APPT-XL Ellagic Acid (Thermo Scientific) was diluted in MP reagent then added to the well and allowed to incubate for 45 min. Then 15 ul of Fluo Flu Cal substrate (Diagnostica Stago) was added immediately before a continuous 90 min reading of the microplate. The measured real-time thrombin concentration values were plotted against time to yield a thrombogram profile for each concentration of the test article used.
# [5] = conc. of drug required to increase clotting time by 2-fold over baseline
# [6] = dose response curves, pooled normal human plasma
# [7] = Extrinsic Pathway Activation with Tissue Factor
compound,measurement,setting,value
"COc1ccc(-n2nc(C(N)=O)c3c2C(=O)N(c2ccc(N4CCCCC4=O)cc2)CC3)cc1 [Apixaban, reference compound]",C2xt of Prothrombin Time (PT) - Extrinsic Pathway,[1]; [5],3.5 µM
same,effect on plasma PT (in words),[1]; [6],prolonged both aPTT and PT with uM concentrations
same,C2xt of activated Partial Thromboplastin Time (aPTT) - Intrinsic Pathway,[2]; [5],7 µM
same,effect on plasma aPTT (in words),[2]; [6],prolonged both aPTT and PT with uM concentrations
same,Concentration required for ↑ lag time by 2×,[3]; [7],250 nM
same,Concentration required for ↓ endogenous thrombin potential by ½,[3]; [7],250 nM
same,Concentration required for ↓ thrombin peak by ½,[3]; [7],62.5 nM
same,effect on thrombin generation (in words),[3]; plasma triggered by Tissue Factor,dose dependently inhibited thrombin generation
same,Concentration required for ↑ lag time by 2×,[4],> 500 nM
same,Concentration required for ↓ endogenous thrombin potential by ½,[4],> 500 nM
same,Concentration required for ↓ thrombin peak by ½,[4],> 500 nM
same,Concentration required for ↑ lag time by 2×,"[4]; dash cells, dose up to 500 nM",— (no effect on thrombin generation with a dose up to 500 nM)
same,Concentration required for ↓ endogenous thrombin potential by ½,"[4]; dash cells, dose up to 500 nM",— (no effect on thrombin generation with a dose up to 500 nM)
same,Concentration required for ↓ thrombin peak by ½,"[4]; dash cells, dose up to 500 nM",— (no effect on thrombin generation with a dose up to 500 nM)
same,effect on thrombin generation (in words),[4]; plasma triggered by ellagic acid,dose dependent reduction in thrombin generation
